As a reminder, the TD50 is the dose at which the toxic effect under study appears in half of the subjects. A word on the ED50: it is the dose that gives a 50% effect, or the effect in half of the subjects.

Read-outs that look alike come from different tables or passages of the source. Marks after values point to notes of the source that are not given here.

Series [1] is described as follows: Horizontal screen assay (HS), neurologic toxicity. Format: in vivo. Conditions: mouse; mice; Median Toxic Dose; evaluated using a horizontal screen assay (HS) as opposed to the Rotorod Test; read-out: Tox TD50. On the procedure: (§1) in the eye prior to application of the electrodes so as to prevent the death of the animal. Protection in this test was defined as the abolition of the hind limb tonic extension component of the seizure. The Subcutaneous Pentylenetetrazole (Metrazol^R) Seizure Threshold Test (sc Met) entailed the administration of 85 mg/kg of pentylenetetrazole as a 0.5% solution subcutaneously in the posterior midline. […] Protection was defined as the failure to observe even a threshold seizure (a single episode of clonic spasms of at least 5 sec duration). The effects of the compounds on forced and spontaneous motor activity were evaluated in mice using the Rotorod Test (Tox) or, in some cases, as indicated herein, a horizontal screen assay (HS). The animal was placed on a one-inch diameter knurled plastic rod rotating at 6 rpm after the administration of the drug. Normal mice can remain on a rod rotating at this speed indefinitely. Neurologic toxicity was defined as the failure of the animal to remain on the rod for one minute. The MES and so Met Tests were conducted on single animals while four mice were utilized for the Tox Test. The dose effect behavior of the compounds was evaluated using the above-described procedures by the administration of varying dose levels, treating normally eight mice at each dose. Table I includes an evaluation of the Median Effective Dose (ED50) and the Median Toxic Dose (TD50) of representative compounds. Mice were tested with varying doses of the anticonvulsant to define the limits of complete protection (or toxicity) and no protection (or no toxicity), as well as three points in between these limits. The Median Effective Dose (ED50) was defined as the dose which produced the Pharmacology. […] N-Acetyl-D,L-alanine-N'-benzylamide was tested at […] as well. […] Maximal electroshock seizures (MES) were elicited with a 60 cycle alternating current of 50 mA intensity (5-7 times that necessary to elicit minimal electroschock seizures) delivered for 0.2 sec via corneal electrodes. A drop of 0.9% saline was instilled desired endpoint in 50% of the animals. The Median Toxicity Dose (TD50) was the dose which elicited evidence of minimal neurological toxicity in 50% of the animals.
The TD50 of D,L-α-acetamido-N-benzyl-3-thiopheneacetamide, D,L-α-acetamido-N-benzyl-2-thiopheneacetamide, D,L-α-acetamido-N-benzyl-2-furanacetamide, D,L-α-acetamido-N-benzyl-2-pyrroleacetamide, D,L-2-acetamido-N-benzyl-2-ethoxyacetamide and D,L-2-acetamido-N-benzyl-2-methoxyacetamide were evaluated using a horizontal screen assay (HS) as opposed to the Rotorod Test.
For orientation: Falling from the rotarod earlier than controls is read as motor impairment.

In series [2] the test system is Maximal electroshock seizures (MES). The experiment in a line: Maximal electroshock seizure test (MES). It counts as in vivo, mice. Conditions: Mus musculus, read-out: MES ED50. On the procedure: as §1
For orientation: The maximal electroshock test induces tonic seizures with an electrical stimulus.

For series [3], the system named is male Carworth Farms #1 mice. Nature of the series: Rotorod Test (Tox), neurologic toxicity. It counts as in vivo. Conditions: Median Toxic Dose, comparison drugs.
Description: The effects of the compounds on forced and spontaneous motor activity were evaluated in mice using the Rotorod Test (Tox) or, in some cases, as indicated herein, a horizontal screen assay (HS). The animal was placed on a one-inch diameter knurled plastic rod rotating at 6 rpm after the administration of the drug. Normal mice can remain on a rod rotating at this speed indefinitely. Neurologic toxicity was defined as the failure of the animal to remain on the rod for one minute. The MES and so Met Tests were conducted on single animals while four mice were utilized for the Tox Test. The dose effect behavior of the compounds was evaluated using the above-described procedures by the administration of varying dose levels, treating normally eight mice at each dose. […] Mice were tested with varying doses of the anticonvulsant to define the limits of complete protection (or toxicity) and no protection (or no toxicity), as well as three points in between these limits. […] The Median Toxicity Dose (TD50) was the dose which elicited evidence of minimal neurological toxicity in 50% of the animals.
Series [4] has as its system pentylenetetrazole. Nature of the series: Subcutaneous Pentylenetetrazole (Metrazol) Seizure Threshold Test (sc Met). It counts as in vivo, mice. Conditions: for ED50: Mus musculus, sc, 0.5 h, read-out: sc Met ED50. The procedure: as §1
Where [5] appears, read: mice, 85 mg/kg pentylenetetrazole subcutaneously, observed for 30 minutes.
The mark [6] stands for this setting: mice, 50 mA, 60 cycle, 0.2 sec via corneal electrodes, abolition of hind limb tonic extension.

Take `CCOC(NC(C)=O)C(=O)NCc1ccccc1` (racemic) [D,L-2-Acetamido-N-benzyl-2-ethoxyacetamide]: the TD50 in series [1] was greater than 112 mg/kg. Also, in series [2], the ED50 is 62 mg/kg.
The corresponding values for `COC(NC(C)=O)C(=O)NCc1ccccc1` (racemic) [D,L-2-Acetamido-N-benzyl-2-methoxyacetamide] are less than 300 mg/kg and 98.3 mg/kg.
For `CC(=O)NC(C(=O)NCc1ccccc1)c1ccco1` (racemic) [D,L-α-Acetamido-N-benzyl-2-furanacetamide], in that order: 40 mg/kg and 10.3 mg/kg.
In the case of `CC(=O)NC(C(=O)NCc1ccccc1)c1ccc[nH]1` (racemic) [D,L-α-Acetamido-N-benzyl-2-pyrroleacetamide], the TD50 in series [1] is less than 100 mg/kg. For the same molecule, the ED50 in series [2] came out at 16.1 mg/kg.
`CC(=O)NC(C(=O)NCc1ccccc1)c1cccs1` (racemic) [D,L-α-Acetamido-N-benzyl-2-thiopheneacetamide]: in series [1], the TD50 lay in the range of 30 to 100 mg/kg. Besides, in series [2], the ED50 worked out at 44.8 mg/kg.
The corresponding values for `CC(=O)NC(C(=O)NCc1ccccc1)c1ccsc1` (racemic) [D,L-α-Acetamido-N-benzyl-3-thiopheneacetamide] are greater than 100 mg/kg and 87.8 mg/kg.
With `CCC1(c2ccccc2)NC(=O)N(C)C1=O` (stereo not shown) [mephenytoin], the “Tox TD50” value in series [3] is 154 mg/kg. Also, the figures for the ED50 in series [4] (setting [5]) and in series [2] (setting [6]) were 31 mg/kg and 61 mg/kg, respectively.
For `NC(=O)NC(=O)Cc1ccccc1` [phenacemide], in that order: 421 (337-549)* mg/kg, 116 mg/kg and 87 mg/kg.
For the molecule `CCC1(c2ccccc2)C(=O)NC(=O)NC1=O` [phenobarbital, reference compound], the ED50 was determined as 13 mg/kg in series [4] and 22 mg/kg in series [2].
`O=C1NC(=O)C(c2ccccc2)(c2ccccc2)N1` [phenytoin, reference compound]: the “sc Met ED50” value in series [4] (setting [5]) is “not effective”. Further, the ED50 in series [2] (setting [6]) turned out to be 10 mg/kg.
